Results on 16 compounds are retold here after patent publication US10329295B2, “Pyrrolotriazine inhibitors of IRAK4 activity” (MERCK SHARP & DOHME CORP., priority 2015, dated 2019).

Counter-ions that a name gives are not always drawn.

The target of this assay is GST tagged IRAK4 (Homo sapiens (Human), UniProt Q9NWZ3). In words: IRAK4 Kinase Assay (IMAP fluorescence polarization). Format: biochemical. As to conditions: 0.5 nM GST tagged IRAK4, 100 μM ATP, 30 minutes at 25° C. In a few lines: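 Reactions contained 0.5 nM GST-IRAK4, 100 nM fluorescent peptide substrate and 100 μM ATP in 10 mM Tris-HCl pH 7.2 with 1 mM MgCl2, and were started with ATP. After 30 minutes at 25° C they were stopped with IMAP reagent. Substrate phosphorylation was read as the change in fluorescence polarization.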
GST tagged IRAK4, sequence (Q9NWZ3 whole entry): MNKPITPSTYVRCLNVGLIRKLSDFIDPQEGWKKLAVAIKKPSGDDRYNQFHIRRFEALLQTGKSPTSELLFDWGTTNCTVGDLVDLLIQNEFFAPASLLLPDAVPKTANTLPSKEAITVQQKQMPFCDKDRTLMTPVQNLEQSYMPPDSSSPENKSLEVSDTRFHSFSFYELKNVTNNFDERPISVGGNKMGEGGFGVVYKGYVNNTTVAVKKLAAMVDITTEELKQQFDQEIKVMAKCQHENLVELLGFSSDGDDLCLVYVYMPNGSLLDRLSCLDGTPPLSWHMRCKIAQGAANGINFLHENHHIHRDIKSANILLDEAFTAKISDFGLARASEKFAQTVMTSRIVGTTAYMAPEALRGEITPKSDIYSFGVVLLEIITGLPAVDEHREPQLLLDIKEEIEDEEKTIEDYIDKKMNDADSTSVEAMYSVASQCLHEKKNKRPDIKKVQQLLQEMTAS
A general note: Fluorescence polarisation rises when a labelled molecule tumbles more slowly, as on binding a larger partner.
In turn, `Cn1cc(NC(=O)c2ccc3cnc(N[C@@H]4CNC[C@H](F)C4)nn23)c(C(F)(F)F)n1` [Example 154, 2-{[(3S,5R)-5-fluoropiperidin-3-yl]amino}-N-[1-methyl-3-(trifluoromethyl)-1H-pyrazol-4-yl]pyrrolo[2,1-f][1,2,4]triazine-7-carboxamide] returned an IC50 of 53 nM.

`Cn1cc(NC(=O)c2ccc3cnc(N[C@@H]4CNC[C@H](F)C4)nn23)c(C(F)F)n1` [Example 155, N-[3-(difluoromethyl)-1-methyl-1H-pyrazol-4-yl]-2-{[(3S,5R)-5-fluoropiperidin-3-yl]amino}pyrrolo[2,1-f][1,2,4]triazine-7-carboxamide] had an IC50 of 7 nM.

Take `Cn1cc(NC(=O)c2ccc3cnc(N4C[C@H](N)C[C@@H](F)C4)nn23)c(C(F)F)n1` [Example 156, 2-[(3R,5R)-3-amino-5-fluoropiperidin-1-yl]-N-[3-(difluoromethyl)-1-methyl-1H-pyrazol-4-yl]pyrrolo[2,1-f][1,2,4]triazine-7-carboxamide trifluoroacetate]: half-maximal inhibition (IC50) required 0.5 nM.

With `Cn1cc(NC(=O)c2ccc3cnc(N4C[C@@H](N)C[C@H](F)C4)nn23)c(C(F)F)n1` [Example 157, 2-[(3S,5S)-3-amino-5-fluoropiperidin-1-yl]-N-[3-(difluoromethyl)-1-methyl-1H-pyrazol-4-yl]pyrrolo[2,1-f][1,2,4]triazine-7-carboxamide trifluoroacetate], inhibition was half-maximal at 0.8 nM (IC50).

As for `N#Cc1sccc1NC(=O)c1ccc2cnc(N[C@@H]3CCCC(F)(F)[C@@H]3N)nn12` [Example 158, 2-{[(1R,2R)-2-amino-3,3-difluorocyclohexyl]amino}-N-(2-cyanothiophen-3-yl)pyrrolo[2,1-f][1,2,4]triazine-7-carboxamide formate], it took 1040 nM to reach half-maximal inhibition (IC50).

Consider `Cn1cc(NC(=O)c2ccc3cnc(N[C@H]4CNC[C@@H](F)C4)nn23)c(C(F)F)n1` [Example 159, N-[3-(difluoromethyl)-1-methyl-1H-pyrazol-4-yl]-2-{[(3R,5S)-5-fluoropiperidin-3-yl]amino}pyrrolo[2,1-f][1,2,4]triazine-7-carboxamide], for which the IC50 is 0.5 nM.

`Cn1cc(NC(=O)c2ccc3cnc(N[C@H]4CNC[C@@H](F)C4)nn23)c(C(F)(F)F)n1` [Example 160, 2-{[(3R,5S)-5-fluoropiperidin-3-yl]amino}-N-[1-methyl-3-(trifluoromethyl)-1H-pyrazol-4-yl]pyrrolo[2,1-f][1,2,4]triazine-7-carboxamide]: half-maximal inhibition (IC50) required 9 nM.

Turning to `Cn1cc(NC(=O)c2ccc3cnc(N[C@@H]4CNC[C@@H](F)C4)nn23)c(C(F)(F)F)n1` [Example 161, 2-{[(3S,5S)-5-fluoropiperidin-3-yl]amino}-N-[1-methyl-3-(trifluoromethyl)-1H-pyrazol-4-yl]pyrrolo[2,1-f][1,2,4]triazine-7-carboxamide trifluoroacetate], the midpoint of inhibition, the IC50, lay at 4 nM.

`Cn1cc(NC(=O)c2ccc3cnc(N[C@H]4CNC[C@H](F)C4)nn23)c(C(F)(F)F)n1` [Example 162, 2-{[(3R,5R)-5-fluoropiperidin-3-yl]amino}-N-[1-methyl-3-(trifluoromethyl)-1H-pyrazol-4-yl]pyrrolo[2,1-f][1,2,4]triazine-7-carboxamide trifluoroacetate]: the IC50 was determined as 18 nM.

Compound `Cn1cc(NC(=O)c2ccc3cnc(N4C[C@H](N)C[C@H](F)C4)nn23)c(C(F)F)n1` [Example 163, 2-[(3R,5S)-3-amino-5-fluoropiperidin-1-yl]-N-[3-(difluoromethyl)-1-methyl-1H-pyrazol-4-yl]pyrrolo[2,1-f][1,2,4]triazine-7-carboxamide trifluoroacetate] showed an IC50 of 0.7 nM.

`Cn1cc(NC(=O)c2ccc3cnc(N[C@@H]4CNC[C@@H](F)C4)nn23)c(C(F)F)n1` [Example 164, N-[3-(difluoromethyl)-1-methyl-1H-pyrazol-4-yl]-2-{[(3S,5S)-5-fluoropiperidin-3-yl]amino}pyrrolo[2,1-f][1,2,4]triazine-7-carboxamide] came in with an IC50 of 0.5 nM.

`Cn1cc(NC(=O)c2ccc3cnc(N[C@H]4CNC[C@H](F)C4)nn23)c(C(F)F)n1` [Example 165, N-[3-(difluoromethyl)-1-methyl-1H-pyrazol-4-yl]-2-{[(3R,5R)-5-fluoropiperidin-3-yl]amino}pyrrolo[2,1-f][1,2,4]triazine-7-carboxamide trifluoroacetate] showed an IC50 of 1 nM.

In the case of `CCn1cc(NC(=O)c2ccc3cnc(N[C@@H]4CCCC[C@@H]4N)nn23)cn1` [Example 166, 2-{[(1R,2S)-2-Aminocyclohexyl]amino}-N-(1-ethyl-1H-pyrazol-4-yl)pyrrolo[2,1-f][1,2,4]triazine-7-carboxamide], 38 nM corresponded to half-maximal inhibition (IC50).

Regarding `N[C@H]1CCCC[C@H]1Nc1ncc2ccc(C(=O)Nc3cnn(CCO)c3)n2n1` [Example 167, 2-{[(1R,2S)-2-aminocyclohexyl]amino}-N-[1-(2-hydroxyethyl)-1H-pyrazol-4-yl]pyrrolo[2,1-f][1,2,4]triazine-7-carboxamide trifluoroacetate], the IC50 was 178 nM.

`COCCn1cc(NC(=O)c2ccc3cnc(N[C@@H]4CCCC[C@@H]4N)nn23)cn1` [Example 168, 2-{[(1R,2S)-2-aminocyclohexyl]amino}-N-[1-(2-methoxyethyl)-1H-pyrazol-4-yl]pyrrolo[2,1-f][1,2,4]triazine-7-carboxamide trifluoroacetate] gave an IC50 of 301 nM.

`Cn1cc(NC(=O)c2ccc3cnc(N[C@@H]4CCCC[C@@H]4N)nn23)cn1` [Example 169, 2-{[(1R,2S)-2-aminocyclohexyl]amino}-N-(1-methyl-1H-pyrazol-4-yl)pyrrolo[2,1-f][1,2,4]triazine-7-carboxamide trifluoroacetate] gave a 50% inhibitory concentration (IC50) of 35 nM.

The IC50 is the concentration that gives 50% inhibition.
